Source: patent US20040019043A1, “Thiomolybdate analogues and uses thereof” (priority 2002, published 2004)
Marks after values point to notes of the source that are not given here.

Legend:
[1] = Chemical Stability Data for Analogs
[2] = Animal weight and hematocrit in 3LL tumor-bearing mice
Protocol: (§1) Animals are followed by weighing, palpation and measurement of tumor size. […] A positive control compound, for example cyclophosphamide at 170 mg/kg/injection is given every 6 days. Results computed include mean animal weight, tumor size, tumor weight and survival time. For confirmed therapeutic activity, the test composition should be tested in two multi-dose assays. Female C57/BL mice were inoculated with 1×10^6 Lewis Lung carcinoma (3LL) cells subcutaneously in the middle of the back. […] Cyclophosphamide (170 mg/kg given every 6 days subcutaneously beginning on day 3 after tumor cell inoculation) was used as a control. Tumor volumes and animal weights were measured 2×/week and the animals euthanized when the volume of the tumors in the control group reached an average of 2000 mm^3. The ratio (T/C) of the tumor volumes in the treated group (T) to the control group (C) were determined. Terminal cardiac bleeds were obtained and analyzed for red blood cell concentration (hematocrit, HCT).

[3] = test system: Lewis Lung carcinoma (3LL) cells; assay: In Vivo 3LL Lewis Lung Carcinoma: Primary Tumor Growth; conditions: 3LL s.c. in female C57/BL mice; TM and CHTM 50 mg/kg po by gavage from day after inoculation; cyclophosphamide 170 mg/kg s.c. every 6 days from day 3
Protocol: The tumor model used was 3LL JF in C57BL/6 mice. […] The test compound is administered daily for 11-25 days.
as §1

[4] = After 10 days, Oven to room conditions

With `C[N+]1(C)CCCC1.C[N+]1(C)CCCC1.[S]=[Mo](=[S])([S-])[S-]` [1,1-dimethylpyrrolidinium, Tetrathiomolybdate, bis(1,1-dimethylpyrrolidinium)] the “% remaining” value [1, 4] was 70%.

With `Cc1cc[n+](C)cc1` [1,4-dimethylpyridinium, Tetrathiomolybdate, bis(1,4-dimethylpyridinium)] the “% remaining” value [1, 4] was 32%.

For `CCn1cc[n+](C)c1.CCn1cc[n+](C)c1.[S]=[Mo](=[S])([S-])[S-]` [1-ethyl-3-methyl-1H-imidazolium, Tetrathiomolybdate, bis(1-ethyl-3-methyl-1H-imidazolium)], the “% remaining” value [1, 4] was 75%.

With `[NH4+].[NH4+].[SH-].[SH-].[S]=[Mo]=[S]` [Ammonium, ammonium tetrathiomolybdate] the “HCT (hematocrit, red blood cell concentration)” value (“HCT” for short) ([2]; mouse, in vivo) was 35%, the “MOUSE WEIGHT % of initial” value ([2]; mouse, in vivo) was 93%* and the “% remaining” value ([1]; *9 days, different study, Oven to room conditions) was “*48%”. The “T/C (ratio of tumor volumes in treated group to control group)” value [3] was 0.59.

In the case of `C[N+](C)(C)CCO` [Choline, Tetrathiomolybdate, bis(choline)], the “HCT” value ([2]; mouse, in vivo) is reported as 35%, the “MOUSE WEIGHT % of initial” value ([2]; mouse, in vivo) is reported as 103% and the “% remaining” value [1, 4] is reported as 62%.

In the case of `O=P1(N(CCCl)CCCl)NCCCO1` (stereo not shown) [Cyclophosphamide], the “MOUSE WEIGHT % of initial” value ([2]; 3LL tumor-bearing female C57/BL mice, same dosing as T/C) is reported as 105%, the “HCT” value ([2]; terminal cardiac bleeds, normal is 45%) is reported as 40% and the “T/C (ratio of tumor volumes in treated group to control group)” value [3] is reported as 0.74.

For `CC[N+](C)(CC)CC.CC[N+](C)(CC)CC.[S]=[Mo](=[S])([S-])[S-]` [Methyltriethylammonium, Tetrathiomolybdate, bis(triethylmethyl ammonium)], the “% remaining” value [1, 4] was 63%.

In the case of `CC[N+](CC)(CC)c1ccccc1.CC[N+](CC)(CC)c1ccccc1.[S]=[Mo](=[S])([S-])[S-]` [Triethylphenylammonium, Tetrathiomolybdate, bis(triethylphenyl ammonium)], the “% remaining” value [1, 4] is reported as 76%.

For `C[N+](C)(C)Cc1ccccc1.C[N+](C)(C)Cc1ccccc1.[S]=[Mo](=[S])([S-])[S-]` [Trimethylbenzylammonium, Tetrathiomolybdate, bis(benzyltrimethylammonium)], the “% remaining” value [1, 4] was 94%.

In the case of `C[N+](C)(C)c1ccccc1.C[N+](C)(C)c1ccccc1.[S]=[Mo](=[S])([S-])[S-]` [Trimethylphenylammonium, Tetrathiomolybdate, bis(phenyltrimethylammonium)], the “% remaining” value ([1]; 7 days, 74-77% RH, RT) is reported as 98% and the “% remaining” value [1, 4] is reported as 85%.

In the case of `C[N+](C)(Cc1ccccc1)c1ccccc1.C[N+](C)(Cc1ccccc1)c1ccccc1.[S]=[Mo](=[S])([S-])[S-]` [bis(benzylphenyldimethylammonium), Tetrathiomolybdate, bis(benzylphenyldimethylammonium)], the “% remaining” value ([1]; 7 days, 74-77% RH, RT) is reported as 45%.

For `C[N+](C)(C)CC1CC1.C[N+](C)(C)CC1CC1.[S]=[Mo](=[S])([S-])[S-]` [bis(cyclopropylmethyltrimethylammonium), Tetrathiomolybdate, bis(cyclopropylmethyltrimethyl ammonium)], the “% remaining” value ([1]; 7 days, 74-77% RH, RT) was 86%.

With `C=C[N+](C)(C)C.C=C[N+](C)(C)C.[S]=[Mo](=[S])([S-])[S-]` [bis(vinyltrimenthyammonium), Tetrathiomolybdate, bis(vinyltrimethyl ammonium)] the “% remaining” value ([1]; 7 days, 74-77% RH, RT) was 72%.

With `C[N+](C)(C)CCCC[N+](C)(C)C` [butane-1,4-bis(trimethylammonium)] the “% remaining” value [1, 4] was 40%.

For `C[N+](C)(C)CCCCCC[N+](C)(C)C.[S]=[Mo](=[S])([S-])[S-]` [hexane-1,6-bis(trimethylammonium), Tetrathiomolybdate, hexane-1,6-bis(trimethylammonium)], the “% remaining” value ([1]; 7 days, 74-77% RH, RT) was 94%.

For `C[N+](C)(C)CCCCC[N+](C)(C)C` [pentane-1,5-bis(trimethylammonium), Tetrathiomolybdate, pentane-1,5-bis(trimethylammonium)], the “% remaining” value [1, 4] was 86%.

For Ethylenebis(trimethylammonium), the “% remaining” value [1, 4] was 40%.
